Source: patent US8658800B2 (priority 2010, dated 2014)
Read-outs that look alike come from different tables or passages of the source. Each block holds one compound with its values, some of them ahead of it.

Experiments:
[1] = logP by HPLC on reversed-phase columns (C 18), EEC Directive 79/831 Annex V.A8; format: physicochemical
Procedure: The logP values reported in the table above and in the Preparation Examples were determined in accordance with EEC Directive 79/831 Annex V.A8 by HPLC (High Performance Liquid Chromatography) on reversed-phase columns (C 18), with the following methods:
The LC-MS determination in the acidic range is carried out at pH 2.7 using the mobile phases 0.1% aqueous formic acid and acetonitrile (contains 0.1% formic acid), linear gradient from 10% acetonitrile to 95% acetonitrile
Calibration was carried out using unbranched alkan-2-ones (having from 3 to 16 carbon atoms) with known logP values (the logP values were determined by the retention times using linear interpolation between two successive alkanones).

[2] = tested on: caterpillars of the armyworm (Spodoptera frugiperda); test: Spodoptera frugiperda test (SPODFR spray treatment); format: in vivo; settings: foliar, 168 h, read-out: activity (kill of caterpillars)
Procedure: Spodoptera frugiperda Test (SPODFR Spray Treatment)
Solvents: 78.0 parts by weight of acetone
• 1.5 parts by weight of dimethylformamide Emulsifier: 0.5 part by weight of alkylaryl polyglycol ether
To produce a suitable preparation of active compound, 1 part by weight of active compound is mixed with the stated amount of solvents and emulsifier, and the concentrate is diluted with emulsifier-containing water to the desired concentration.
Discs of maize leaves (Zea mays) are sprayed with an active compound preparation of the desired concentration and, after drying, populated with caterpillars of the armyworm (Spodoptera frugiperda).
After 7 days, the effect in % is determined. 100% means that all caterpillars have been killed; 0% means that none of the caterpillars have been killed.

[3] = tested on: larvae of the mustard beetle (Phaedon cochleariae); test: Phaedon test (PHAECO spray treatment); format: in vivo; settings: 168 h, read-out: activity (kill of beetle larvae)
Procedure: Phaedon Test ([…] Spray Treatment) Solvents: 78.0 parts by weight of acetone • • 1.5 parts by weight of dimethylformamide Emulsifier: 0.5 part by weight of alkylaryl polyglycol ether To produce a suitable preparation of active compound, 1 part by weight of active compound is mixed with the stated amount of solvents and emulsifier, and the concentrate is diluted with emulsifier-containing water to the desired concentration. Discs of Chinese cabbage (Brassica pekinensis) are sprayed with an active compound preparation of the desired concentration and, after drying, populated with larvae of the mustard beetle (Phaedon cochleariae).

[4] = reversed-phase C18 HPLC column, HPLC, reversed-phase C 18, acidic range pH 2.7, 0.1% aqueous formic acid/acetonitrile, read-out: log P
[5] = 100 g/ha, sprayed maize leaf discs, after 7 days
[6] = HPLC, reversed-phase C 18, acidic range pH 2.7, 0.1% aqueous formic acid/acetonitrile, read-out: log P
[7] = 100 g/ha, sprayed Chinese cabbage discs, after 7 days

Compound: Cc1cc(Cl)cc(OC(F)(F)F)c1NC(=O)c1cc(Cn2nnc(C(F)(F)F)n2)nn1-c1ncccc1Cl [Compound 10]
chromatographic logP [1, 4]: 4
pest or weed control at 100 g/ha [2, 5]: 100%

Compound: O=C(O)c1cc(Cl)cc(Cl)c1NC(=O)c1cc(Cn2nc(C(F)(F)C(F)(F)C(F)(F)F)cc2C(F)(F)F)nn1-c1ncccc1Cl [Compound 15]
chromatographic logP [1, 6]: 4.4
pest or weed control at 100 g/ha ([3]; in Brassica rapa): 83%

Compound: Cc1cccc(C(=O)NS(C)(=O)=O)c1N
chromatographic logP [1, 6]: 1.1

Compound: O=C(O)c1cc(Cl)cc(Cl)c1NC(=O)c1cc(Cn2nnc(C(F)(F)C(F)(F)F)n2)nn1-c1ncccc1Cl [Compound 23]
chromatographic logP [1, 4]: 3.37
pest or weed control at 100 g/ha [3, 7]: 100%

Compound: Cc1cc(F)cc(C(=O)O)c1NC(=O)c1cc(Cn2nnc(C(F)(F)C(F)(F)F)n2)nn1-c1ncccc1Br [Compound 3]
chromatographic logP [1, 4]: 3.16
pest or weed control at 100 g/ha [2, 5]: 100%

Compound: Cc1cc(C#N)cc(OC(F)F)c1N
chromatographic logP [1, 6]: 1.9

Compound: COC(=O)c1cc(I)cc(C)c1NC(=O)c1cc(Cn2nc(C(F)(F)F)cc2C(F)(F)F)nn1-c1ncccc1Cl [Compound 11]
chromatographic logP [1, 4]: 4.57

Compound: Cc1cc(Br)cc(OC(F)F)c1N
chromatographic logP [1, 6]: 2.84

Compound: Cc1cc(F)cc(C(=O)O)c1NC(=O)c1cc(Cn2nnc(C(F)(F)F)n2)nn1-c1ncccc1Cl [Compound 20]
chromatographic logP [1, 4]: 2.75

Compound: Cc1cccc(C(=O)C2CC2)c1NC(=O)c1cc(Cn2nnc(C(F)(F)F)n2)nn1-c1ncccc1Cl [Compound 35]
chromatographic logP [1, 4]: 3.33
pest or weed control at 100 g/ha [2, 5]: 100%

Compound: Cc1cccc(C(=O)NS(C)(=O)=O)c1NC(=O)c1cc(Cn2nnc(C(F)(F)F)n2)nn1-c1ncccc1Cl [Compound 5]
chromatographic logP ([1]; pH 2.7): 2.47
pest or weed control at 100 g/ha ([2]; in Zea mays): 100%

Compound: Cc1cc(C#N)cc(C(=O)O)c1NC(=O)c1cc(Cn2nc(C(F)F)cc2C(F)F)nn1-c1ncccc1Cl [Compound 18]
chromatographic logP [1, 4]: 2.62

Compound: CNS(=O)(=O)c1cccc(C)c1NC(=O)c1cc(Cn2nnc(C(F)(F)F)n2)nn1-c1ncccc1Cl [Compound 33]
chromatographic logP [1, 4]: 2.9

Compound: Cc1cc(Cl)cc(C(=O)NS(=O)(=O)N(C)C)c1NC(=O)c1cc(Cn2cc(C(F)(F)C(F)(F)F)cn2)nn1-c1ncccc1Cl [Compound 1]
chromatographic logP ([1]; pH 2.7): 3.35

Compound: CCC(=O)c1cccc(C)c1NC(=O)c1cc(Cn2nnc(C(F)(F)F)n2)nn1-c1ncccc1Cl [Compound 34]
chromatographic logP [1, 4]: 3.35

More lines, main results first:

chromatographic logP [1, 4]: 3.39
Compound: Cc1cc(I)cc(C(=O)NS(C)(=O)=O)c1NC(=O)c1cc(Cn2nnc(C(F)(F)C(F)(F)F)n2)nn1-c1ncccc1Br [Compound 4]

chromatographic logP [1, 4]: 2.55
Compound: O=C(O)c1cc(Cl)cc(Cl)c1NC(=O)c1cc(Cn2nnc(C(F)F)n2)nn1-c1ncccc1Cl [Compound 25]

chromatographic logP [1, 4]: 3.04
Compound: O=C(O)c1cc(Cl)cc(Cl)c1NC(=O)c1cc(Cn2nnc(C(F)(F)F)n2)nn1-c1ncccc1Cl [Compound 21]
pest or weed control at 100 g/ha [2, 5]: 83%
pest or weed control at 100 g/ha [3, 7]: 100%

chromatographic logP [1, 4]: 2.56
Compound: Cc1cccc(S(N)(=O)=O)c1NC(=O)c1cc(Cn2nnc(C(F)(F)F)n2)nn1-c1ncccc1Cl [Compound 32]

chromatographic logP [1, 4]: 3.44
Compound: Cc1cc(Cl)cc(C(=O)O)c1NC(=O)c1cc(Cn2nnc(C(F)(F)C(F)(F)F)n2)nn1-c1ncccc1Cl [Compound 22]
pest or weed control at 100 g/ha [3, 7]: 100%

chromatographic logP [1, 4]: 2.63
Compound: Cc1cc(C#N)cc(C(=O)O)c1NC(=O)c1cc(Cn2cnc(C(F)(F)F)c2C(F)(F)F)nn1-c1ncccc1Cl [Compound 16]
pest or weed control at 100 g/ha [3, 7]: 100%

chromatographic logP [1, 4]: 3.16
Compound: Cc1cc(Cl)cc(C(=O)O)c1NC(=O)c1cc(Cn2nc(C)c(Br)c2C)nn1-c1ncccc1Cl [Compound 17]

chromatographic logP [1, 4]: 3.33
Compound: COC(=O)c1cc(F)cc(C)c1NC(=O)c1cc(Cn2nnc(C(F)(F)F)n2)nn1-c1ncccc1Cl [Compound 29]
pest or weed control at 100 g/ha [2, 5]: 100%
pest or weed control at 100 g/ha [3, 7]: 83%

chromatographic logP [1, 4]: 3.26
Compound: Cc1cc(I)cc(C(=O)O)c1NC(=O)c1cc(Cn2ncc(C(F)(F)F)n2)nn1-c1ncccc1Cl [Compound 27]
pest or weed control at 100 g/ha [2, 5]: 83%
